Where a name gives a salt, the structure may show the parent alone.
Assays:
[1] = test system: bacterial strains that express KPC β-lactamases; experiment: Synergy MIC / standard BLI potentiation MIC assay, strains expressing KPC β-lactamases; assay type: cell-based, isogenic E. coli and clinical isolates; details: more active for at least one KPC strain and/or better spectrum; comparator Avibactam
How it was run: (§1)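 Broth microdilution in CAMHB per CLSI M07-A9, ~10^5 CFU/mL inoculum, 18–20 h at 37 °C with aeration; engineered E. coli kept with 25 μg/mL tetracycline. β-lactam 2-fold from 128 to 0.13 μg/mL with BLI fixed at 4 μg/mL, or BLI serially diluted with β-lactam fixed; MIC is lowest concentration without visible turbidity.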

[2] = test system: bacterial strains that express the class D cephalosporinase OXA-15; experiment: Synergy MIC / standard BLI potentiation MIC assay, strains expressing OXA-15; assay type: cell-based, E. coli; details: in presence of a β-lactam; comparator Avibactam (CCC)
How it was run: as §1

SMILES | activity and/or spectrum of activity against bacterial strains that express KPC β-lactamases, compared with Avibactam [1] | activity against bacterial strains that express OXA-15, compared with Avibactam [2]
N=C1NCC(c2nnc([C@@H]3CC[C@@H]4CN3C(=O)N4OS(=O)(=O)O)o2)N1 (stereo partly drawn) [Compound 767, (2S,5R)-2-(5-(2-iminoimidazolidin-4-yl)-1,3,4-oxadiazol-2-yl)-7-oxo-1,6-diazabicyclo[3.2.1]octan-6-yl hydrogen sulfate] | more active than Avibactam | more active than Avibactam
O=C1N2C[C@@H](CC[C@H]2c2nnc([C@@H]3CCNC3)o2)N1OS(=O)(=O)O [Compound 759, (2S,5R)-7-oxo-2-(5-((R)-pyrrolidin-3-yl)-1,3,4-oxadiazol-2-yl)-1,6-diazabicyclo[3.2.1]octan-6-yl hydrogen sulfate] | more active than Avibactam | more active than Avibactam
CNCCCc1nnc([C@@H]2CC[C@@H]3CN2C(=O)N3OS(=O)(=O)O)o1 [Compound 734, 2S,5R)-2-(5-(3-(methylamino)propyl)-1,3,4-oxadiazol-2-yl)-7-oxo-1,6-diazabicyclo[3.2.1]octan-6-yl hydrogen sulfate] | more active than Avibactam | more active than Avibactam
N=C(N)NCC(O)Cc1nnc([C@@H]2CC[C@@H]3CN2C(=O)N3OS(=O)(=O)O)o1 (stereo partly drawn) [Compound 730, (2S,5R)-2-(5-(3-guanidino-2-hydroxypropyl)-1,3,4-oxadiazol-2-yl)-7-oxo-1,6-diazabicyclo[3.2.1]octan-6-yl hydrogen sulfate] | more active than Avibactam | more active than Avibactam
N[C@@H]1CN[C@H](c2nnc([C@@H]3CC[C@@H]4CN3C(=O)N4OS(=O)(=O)O)o2)C1 [Compound 760, (2S,5R)-2-(5-((2S,4S)-4-aminopyrrolidin-2-yl)-1,3,4-oxadiazol-2-yl)-7-oxo-1,6-diazabicyclo[3.2.1]octan-6-yl hydrogen sulfate] | more active than Avibactam | more active than Avibactam
N=C(N)Nc1nnc([C@@H]2CC[C@@H]3CN2C(=O)N3OS(=O)(=O)O)o1 [Compound 738, (2S,5R)-2-(5-guanidino-1,3,4-oxadiazol-2-yl)-7-oxo-1,6-diazabicyclo[3.2.1]octan-6-yl hydrogen sulfate] | more active than Avibactam | more active than Avibactam
N[C@H]1C[C@H](c2nnc([C@@H]3CC[C@@H]4CN3C(=O)N4OS(=O)(=O)O)s2)C1 [Compound 783, (2S,5R)-2-(5-((1r,3S)-3-aminocyclobutyl)-1,3,4-thiadiazol-2-yl)-7-oxo-1,6-diazabicyclo[3.2.1]octan-6-yl hydrogen sulfate] | more active than Avibactam | more active than Avibactam
NC(=O)c1nnc([C@@H]2CC[C@@H]3CN2C(=O)N3OS(=O)(=O)O)o1 [Compound 706, (2S,5R)-2-(5-carbamoyl-1,3,4-oxadiazol-2-yl)-7-oxo-1,6-diaza-bicyclo[3.2.1]octan-6-yl hydrogen sulfate] | more active than Avibactam | more active than Avibactam
O=C1N2C[C@@H](CC[C@H]2c2nnc(CN[C@@H]3CCNC3)o2)N1OS(=O)(=O)O [Compound 766, (2S,5R)-7-oxo-2-(5-(((R)-pyrrolidin-3-ylamino)methyl)-1,3,4-oxadiazol-2-yl)-1,6-diazabicyclo[3.2.1]octan-6-yl hydrogen sulfate] | more active than Avibactam | more active than Avibactam
N[C@H]1CN[C@H](c2nnc([C@@H]3CC[C@@H]4CN3C(=O)N4OS(=O)(=O)O)o2)C1 [Compound 762, (2S,5R)-2-(5-((2S,4R)-4-aminopyrrolidin-2-yl)-1,3,4-oxadiazol-2-yl)-7-oxo-1,6-diazabicyclo[3.2.1]octan-6-yl hydrogen sulfate] | more active than Avibactam | more active than Avibactam
N=C(N)N1CC(NCc2nnc([C@@H]3CC[C@@H]4CN3C(=O)N4OS(=O)(=O)O)o2)C1 [Compound 746, (2S,5R)-2-(5-(((1-carbamimidoylazetidin-3-yl)amino)methyl)-1,3,4-oxadiazol-2-yl)-7-oxo-1,6-diazabicyclo[3.2.1]octan-6-yl hydrogen sulfate] | more active than Avibactam | more active than Avibactam
N=C(N)NC1(Cc2nnc([C@@H]3CC[C@@H]4CN3C(=O)N4OS(=O)(=O)O)o2)CC1 [Compound 739, (2S,5R)-2-(5-((1-guanidinocyclopropyl)methyl)-1,3,4-oxadiazol-2-yl)-7-oxo-1,6-diazabicyclo[3.2.1]octan-6-yl hydrogen sulfate] | more active than Avibactam | more active than Avibactam

Source: US8933233B2, “1,3,4-oxadiazole and 1,3,4-thiadiazole β-lactamase inhibitors” (priority 2012, dated 2015)
